Measured values: PMC9655037, “Alternation of Organ-Specific Exposure in LPS-Induced Pneumonia Mice after the Inhalation of Tetrandrine Is Governed by Metabolizing Enzyme Suppression and Lysosomal Trapping” (International Journal of Molecular Sciences, 2022)
Values joined by “and” are separate entries in the source; they are usually repeats but may differ in a detail not shown here. Equal values may be shown once. Read-outs that look alike come from different tables or passages of the source.

What was measured:
[1] = Pharmacokinetics of TET in blood after a single i.v. administration in normal and LPS-induced ALI mice; conditions: male, BALB/c, mouse, in vivo, 5 mg/kg; for AUC(0-inf) / AUC(0-t) / C0 / half-life / clearance / MRT last / Vd: iv, 5 mg/kg i.v., blood; for clearance: read-out: CL (in vivo CLblood) (converted); for MRT last: read-out: MRT(0-t)
Source text: Twelve male BALB/c mice were randomly divided into two groups (n = 6 for each group). […]

[2] = Metabolic stability of TET in NADPH-supplemented liver microsomes from normal and LPS-induced ALI mice; format: in vitro ADME, mouse; conditions: for half-life at 1 µM: mouse, microsomes, 1.0 µM TET, 0.5 mg/mL protein, 37 °C, read-out: In vitro t1/2
Procedure: Liver and pulmonary microsomes from normal and LPS-induced pulmonary infected mice were isolated according to the conventional differential centrifugation approach. In brief, six normal mice and six acute pneumonia mice (48 h after i.t. administration of LPS) were sacrificed. Lungs and livers were harvested and rinsed with ice NS. The tissues were weighed and homogenized with 50 mM Tris buffer solution (TBS, m:v = 1:3). The prepared homogenate was then immediately centrifuged at 10,000× g at 4 °C for 20 min. The resulting supernatant was further centrifuged at 105,000× g at 4 °C for 60 min to yield mouse liver microsomes (MLM) and mouse pulmonary microsomes (MPM). The sediment was resuspended with storage buffer (50 mM TBS containing 0.25 M sucrose and 20% glycerol) and stored at −80 °C immediately. The protein content of the harvested microsomes was measured following the BCA protein assay protocol.
TET (1 μM, 1% acetonitrile) was incubated in normal or pneumonia mice liver microsomes or pulmonary microsomes (0.5 mg/mL) diluted with 100 mM PBS (pH 7.4) containing MgCl2 (3 mM). After preincubation of 5 min, the reaction was initiated by adding NADPH (final concentration of 1 mM) at 37 °C. Periodic aliquots of the incubation mixture at 0, 15, 30, and 45 min were removed, and the protein was precipitated with ice-cold acetonitrile containing IS. After centrifugation, the supernatant was collected and analyzed for the depletion of TET by LC-MS/MS.
The in vitro t1/2 in mouse liver microsomal incubation was calculated from the semi-log plot of percentage remaining vs. incubation time and intrinsic clearance (CLint,app mL/min/mg protein) was calculated as Equation (2).
(§1) (3) CLint,scaled=CLint,app×45mg microsomes/g liver×g liver/kg body weight (4) CLh,blood=Q×fu,p/Rb/p×CLint/fu,mic/Q+CLint·fu,p/Rb·CLint/fu,mic

OATP1B3 = molecular target: T1, OATP1B3 (Homo sapiens, UniProt Q9NPD5); test: Uptake by OATP1B3-expressing HEK293 cells; conditions: human, 5 min
T1 sequence (Q9NPD5 1-702): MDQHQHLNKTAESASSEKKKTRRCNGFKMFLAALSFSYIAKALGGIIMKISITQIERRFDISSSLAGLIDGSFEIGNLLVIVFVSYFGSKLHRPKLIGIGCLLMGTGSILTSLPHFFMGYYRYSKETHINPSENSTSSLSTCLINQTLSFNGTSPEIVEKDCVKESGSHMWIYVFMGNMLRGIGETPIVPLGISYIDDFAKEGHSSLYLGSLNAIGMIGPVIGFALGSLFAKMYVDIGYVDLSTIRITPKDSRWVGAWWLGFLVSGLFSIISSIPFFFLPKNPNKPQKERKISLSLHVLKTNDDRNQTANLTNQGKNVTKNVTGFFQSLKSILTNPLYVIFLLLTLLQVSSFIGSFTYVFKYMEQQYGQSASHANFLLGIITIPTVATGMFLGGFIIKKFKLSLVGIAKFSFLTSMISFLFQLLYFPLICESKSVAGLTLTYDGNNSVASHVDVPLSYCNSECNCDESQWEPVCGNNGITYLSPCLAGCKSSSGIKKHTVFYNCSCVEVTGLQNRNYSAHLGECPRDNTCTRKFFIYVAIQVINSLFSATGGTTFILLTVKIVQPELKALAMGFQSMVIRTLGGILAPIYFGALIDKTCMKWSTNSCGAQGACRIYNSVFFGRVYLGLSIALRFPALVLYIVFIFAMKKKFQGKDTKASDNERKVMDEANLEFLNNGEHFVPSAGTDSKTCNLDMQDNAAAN
Procedure: Expressing OATP1B1/OATP1B3 or MOCK HEK293 cells were utilized to evaluate whether TET is a substrate of these two SLC transporters. Cell culture was performed as mentioned above. Cells were seeded on 96-well plates at the density of 0.8 × 10^5 cells/well. The culture medium was replaced with a medium containing 5 mM sodium butyrate for 24 h before the transport study to enhance the expression of transporters. For the transport assay, the DMEM media were removed and the cells were washed with pre-warmed Krebs–Henseleit buffer twice (0.1 mL/well). The second washing buffer was kept in the wells and the plate was incubated at 37 °C for 5 min before the uptake assay was initiated. […] The incubation solution was removed and the cells were washed with ice-cold transportation buffer three times (0.1 mL/well). A total of 0.1 mL pure water was added to each well to lyse the cells by repeated freezing and thawing (−196 °C–37 °C, three times). The cell lysate was collected and stored at −40 °C for LC-MS/MS analysis and protein measurement.
In the uptake study of TET by OATP1B1 and OATP1B3 expressing the HEK293 cell line, the uptake clearance (U) of the substrate was calculated according to Equation (5), the transporter-mediated uptake ratio (UR) was calculated by dividing the uptake clearance from transporter-expressing cells to that from the mock cells according to Equation (6), and the inhibition ratio (IR) was calculated according to Equation (7), where p represents the protein content and T is the duration of the incubation time. (5) U=Clysate/p×T (6) UR=U/UMOCK (7) IR=(1−Uwith inhibitor−Umock with inhibitor/Uwithout inhibitor−Umock without inhibitor)×100

[3] = In vitro experiments for fup, fu,mic and Rb/p used in the well-stirred model; format: in vitro ADME
Procedure: as §1

COc1ccc2cc1Oc1ccc(cc1)C[C@H]1c3cc(c(OC)cc3CCN1C)Oc1c(OC)c(OC)cc3c1[C@H](C2)N(C)CC3 [TET, Tetrandrine]
increased Vz, LPS-treated vs normal mice [1]: ~ 134%
AUC(0-inf) ([1]; LPS-treated mice): 65700 ± 17500 ng·h/mL
AUC(0-t) ([1]; LPS-treated mice): 44100 ± 8460 ng·h/mL
C0 ([1]; LPS-treated mice): 2300 ± 935 ng/mL
half-life ([1]; LPS-treated mice): 93.2 ± 26.4 h
clearance ([1]; LPS-treated mice): 1.35 mL/min/kg
MRT last ([1]; LPS-treated mice): 137 ± 40.4 h
Vd ([1]; LPS-treated mice, read-out: Vss): 10.5 ± 1.77 L/kg
Vd ([1]; LPS-treated mice, read-out: Vz): 10.3 ± 1.75 L/kg
AUC(0-inf) ([1]; normal mice): 29500 ± 3790 ng·h/mL
AUC(0-t) ([1]; normal mice): 26300 ± 3420 ng·h/mL
C0 ([1]; normal mice): 2270 ± 270 ng/mL
half-life ([1]; normal mice): 30.7 ± 5.21 h
clearance ([1]; normal mice): 2.87 mL/min/kg
MRT last ([1]; normal mice): 72.7 ± 6.4 h
Vd ([1]; normal mice, read-out: Vss): 7.71 ± 2.01 L/kg
Vd ([1]; normal mice, read-out: Vz): 12.5 ± 1.63 L/kg
CLhep,blood (hepatic clearance, well-stirred model) ([2]; LPS-treated mice liver microsomes): 1.48 mL/min/kg and 1.48 ± 0.0136 mL/min/kg
half-life at 1 µM ([2]; pH 7.4, LPS-treated mice liver microsomes): 1.4 ± 0.013 h
half-life at 1 µM ([2]; pH 7.4, normal mice liver microsomes): 0.88 ± 0.0292 h
CLhep,blood (hepatic clearance, well-stirred model) ([2]; normal mice liver microsomes): 2.33 mL/min/kg and 2.33 ± 0.075 mL/min/kg
Inhibition Ratio (OATP1B3; 5 µM): 20.6
Uptake Clearance (OATP1B3; 5 µM): 120 ± 8.61 nM/min/mg Protein
Uptake Ratio (OATP1B3; 5 µM): 1.01
Uptake Clearance (OATP1B3; 5 μM): 151 ± 25.5 nM/min/mg Protein
Rb/p [3]: 2.39
fup [3]: 0.01
fraction unbound ([3]; obtained from in vitro experiments): 0.18
